Data taken from PMC6123711, “Conformational signatures in β-arrestin2 reveal natural biased agonism at a G-protein-coupled receptor” (Communications Biology, 2018).

Columns and labels:
[1] = system: luteinizing hormone (LH) secretion; details: cited from earlier work
Text: G-protein-coupled receptors (GPCRs) are the largest family of cell surface receptors that communicate extracellular stimuli to the cell interior[1]. Biased ligands are of particular interest because they offer the possibility to design a novel class of therapeutic agents. In some GPCRs, biased ligands that preferentially activate G-protein-dependent signaling have therapeutic potential. […] Most descriptions of biased ag ...

[2] = system: Galr2–β-arrestin2–clathrin complex; test: β-arrestin2–clathrin interactions (NanoBit); format: cell-based, human; details: 30 μM cmpd101 (GRK2/3 inhibitor) pretreatment; 10 μM agonist
Text: The interaction between β-arrestin2 and clathrin induced by the activation of Galr2 was examined using the NanoBit technology. We measured real-time association of the protein complex Galr2–β-arrestin2–clathrin. We constructed β-arrestin2 and clathrin subunit A tagged with LgBit or SmBit at the C or N termini and screened eight different plasmid combinations, out of which only one combination (β-arrestin2–LgBit:SmBit–clathrin) responded to ligand stimulation (Fig. 3, Supplementary Fig. 3). Before ligand stimulation, Galr2, β-arrestin2, and clathrin were not in close proximity and so the basal luminescence was very low. […] A time course experiment was initially performed to determine the time at which the maximal increase in luminescence occurred following agonist stimulation. All ligands except for Fmoc-dA4-dQ14 induced different fold increase in luminescence immediately after ligand treatment (Fig. 3b). […] Galanin- and Spexin-induced increases in luminescence were attenuated by pretreatment of cmpd101, a G-protein-coupled receptor kinase 2/3 (GRK2/3) inhibitor, indicating contribution of GRK2/3 in the formation of Galr2–β-arrestin2–clathrin complex (Fig. 3).
The arrows indicate the time when the cells were treated with different ligands. […] The results are expressed as mean ± s.e.m. of three experiments performed in triplicate. Each triplicate was averaged before calculating the s.e.m.
(§1) Quantification of bias between each pathway was performed using Galanin as a reference ligand. All incubations for the different signaling assays were performed in serum-free medium to prevent peptide degradation.
One day before transfection, cells were seeded in 96-well plates at a density of 2.5 × 10^4 cells per well. A mixture containing 35 ng β-arrestin construct containing the LgBit or SmBit, 35 ng clathrin subunit A containing one of the two domains of Nluc and 30 ng untagged receptor, and 0.2 μl Lipofectamine 2000 (Invitrogen) was prepared and added to each well. We followed the assay manufacturer’s instructions and tested eight β-arrestin-clathrin plasmid combinations. In only one plasmid combination we were able to observe luminescent signal and it was chosen for further experiments. At 24 h post transfection, medium was aspirated and replaced with 100 μl OPTIMEM at room temperature. After a 10-min incubation, 25 μl substrate (furimazine) was added and the luminescence was monitored once every minute for 10 min. Then, 10 μl ligand was added to each well and the luminescence values were recorded immediately and once every minute for 1 h (Synergy 2 Multi-Mode Microplate Reader BioTek).

[3] = system: Galr2; test: Galr2 internalization assay based on HiBiT technology; format: cell-based, human; details: 30 μM Cmpd101 30 min; 25 μM PitStop 2 (clathrin) 15 min; 80 μM Dynasore (dynamin) 40 min; Galanin 30 min
Method: The HiBiT protein tagging system, like NanoBiT technology, consists of two subunits: the large fragment (LgBiT) with 156 amino acids and the small fragment of Nluc (SmBiT-High-affinity) with only 11 amino acids that has a very high affinity to LgBit. To quantify Galr2 at the cell surface, cells expressing Galr2 tagged with the SmBiT-High-affinity were treated with cell-impermeable LgBiT along with the Nluc substrate furimazine. SmBiT-High-affinity-Galr2 on the cell surface binds to LgBiT which produces a luminescent signal, while SmBiT-High-affinity-Galr2 inside the cells cannot bind to LgBiT (Fig. 4a).
Fig. 4 Internalization of Galr2. a Schematic representation of the internalization assay. […] Before ligand stimulation, cells were pretreated with 30 μM Cmpd101 (a GRK2/3 inhibitor) for 30 min, 25 μM PitStop 2 (a Clathrin inhibitor) for 15 min, and 80 μM Dynasore (a Dynamin inhibitor) for 40 min. […] Remaining cell surface receptors were determined by measuring the luminescent signal produced by the binding between LgBiT and the Galr2-SmBiT-High affinity. Each data point represents mean ± s. e. m. of two independent experiments performed in triplicate
as §1
Internalization assays were performed using the Nano-Glo HiBiT extracellular detection system acquired from Promega Corporation (Cat. No. N2421). The day before transfection, HEK293 cells were seeded in 96-well plates at a density of 2.5 × 10^4 cells per well. The following day, cells were transfected with a mixture prepared containing 0.5 ng of SmBiT-high-affinity-Galr2 construct and 0.2 μl Lipofectamine 2000 (Invitrogen) added to each well. […] Then luminescence values were recorded immediately (Synergy 2 Multi-Mode Microplate Reader BioTek). […]

Molecule: galanin-like peptide: galanin-like peptide, a Galanin paralog (APAHRGRGGWTLNSAGYLLGPVLHLPQMGDQDGKRETALEILDLWKAIDGLPYSHPPQPS; Galanin-like peptide; UniProt Q9UBC7 25-84, looked up)
- LH secretion, rat [1]: stimulates luteinizing hormone (LH) secretion

Molecule: Cn1c(CNc2cccc(C(=O)NCc3ccccc3C(F)(F)F)c2)nnc1-c1ccncc1 [cmpd101, reference compound]
- effect of pretreatment on Galanin- and Spexin-induced β-arrestin2–clathrin luminescence increase [2]: attenuated
- effect of inhibitor on Galanin-induced Galr2 internalization [3]: partially blocked
